Columns and labels:
recombinant TOP1 = target: T1, recombinant TOP1 (Homo sapiens, UniProt P11387); assay: TOP1-mediated DNA cleavage assay; assay type: biochemical; settings: semiquantitative relative to CPT at 1 μM
T1 sequence (P11387 1-765): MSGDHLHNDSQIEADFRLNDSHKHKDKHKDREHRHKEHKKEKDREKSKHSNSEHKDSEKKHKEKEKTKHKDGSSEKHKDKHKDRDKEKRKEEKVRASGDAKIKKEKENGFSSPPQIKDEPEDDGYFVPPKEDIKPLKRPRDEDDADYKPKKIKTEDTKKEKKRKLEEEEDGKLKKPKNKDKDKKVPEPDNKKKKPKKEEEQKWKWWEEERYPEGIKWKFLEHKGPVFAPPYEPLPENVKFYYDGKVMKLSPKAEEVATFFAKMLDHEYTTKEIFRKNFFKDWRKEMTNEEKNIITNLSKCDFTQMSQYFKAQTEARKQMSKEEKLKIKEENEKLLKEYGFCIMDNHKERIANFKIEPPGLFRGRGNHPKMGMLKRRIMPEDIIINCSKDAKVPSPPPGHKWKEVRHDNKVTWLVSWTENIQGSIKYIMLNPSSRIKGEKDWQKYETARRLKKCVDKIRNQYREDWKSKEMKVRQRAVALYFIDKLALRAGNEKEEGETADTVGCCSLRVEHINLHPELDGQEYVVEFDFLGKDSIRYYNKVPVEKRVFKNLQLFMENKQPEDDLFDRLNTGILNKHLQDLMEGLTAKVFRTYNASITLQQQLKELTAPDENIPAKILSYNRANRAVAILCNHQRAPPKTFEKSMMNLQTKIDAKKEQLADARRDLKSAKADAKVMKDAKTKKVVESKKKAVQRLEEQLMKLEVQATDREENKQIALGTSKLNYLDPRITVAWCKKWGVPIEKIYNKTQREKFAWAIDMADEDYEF

recombinant human TDP1 = recombinant human TDP1 (Homo sapiens, UniProt Q9NUW8); assay: TDP1 gel-based inhibition assay; assay type: biochemical
recombinant human TDP1, sequence (Q9NUW8 whole entry): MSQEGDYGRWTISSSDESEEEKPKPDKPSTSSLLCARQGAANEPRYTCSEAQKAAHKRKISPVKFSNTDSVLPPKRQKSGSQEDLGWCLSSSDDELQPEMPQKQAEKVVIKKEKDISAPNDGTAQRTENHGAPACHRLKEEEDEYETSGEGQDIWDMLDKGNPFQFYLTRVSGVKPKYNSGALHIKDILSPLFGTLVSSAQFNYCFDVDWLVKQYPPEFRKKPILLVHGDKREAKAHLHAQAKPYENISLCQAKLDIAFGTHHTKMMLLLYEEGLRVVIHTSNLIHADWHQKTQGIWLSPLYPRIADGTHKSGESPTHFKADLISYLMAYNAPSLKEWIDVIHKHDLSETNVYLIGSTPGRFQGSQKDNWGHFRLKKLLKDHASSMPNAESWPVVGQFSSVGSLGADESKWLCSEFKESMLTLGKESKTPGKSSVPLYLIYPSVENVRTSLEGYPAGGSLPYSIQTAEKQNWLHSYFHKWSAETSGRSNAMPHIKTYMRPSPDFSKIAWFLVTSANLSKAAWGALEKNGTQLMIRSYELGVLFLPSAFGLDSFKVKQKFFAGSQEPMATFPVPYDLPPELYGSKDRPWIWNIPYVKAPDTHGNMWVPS

HCT-116 cells = assay: MTT cytotoxicity assay, HCT-116; assay type: cell-based, human; settings: Homo sapiens, HCT-116, 72 h, read-out: GI50 ± SD (μM) HCT-116
MCF-7 cells [1] = assay: MTT cytotoxicity assay, MCF-7; assay type: cell-based, human; settings: Homo sapiens, MCF7, 72 h, read-out: GI50 ± SD (μM) MCF-7
MCF-7 cells [2] = assay: Drug combination with TPT; assay type: cell-based, human; settings: co-incubated with TPT for 96 h, 43 at 1 μM
[3] = system: MCF-7/TDP1 cells (overexpressing TDP1); assay: Drug combination with TPT; assay type: cell-based, human; settings: co-incubated with TPT for 96 h
[4] = target: T2, cellular TOP1ccs in MCF-7 cells (Homo sapiens, UniProt P11387); assay: ICE assay for cellular TOP1cc; settings: 1 h, 38 at 25, 50, 100 μM, TPT at 25 and 50 μM
T2 sequence (P11387 2-765 limits assumed): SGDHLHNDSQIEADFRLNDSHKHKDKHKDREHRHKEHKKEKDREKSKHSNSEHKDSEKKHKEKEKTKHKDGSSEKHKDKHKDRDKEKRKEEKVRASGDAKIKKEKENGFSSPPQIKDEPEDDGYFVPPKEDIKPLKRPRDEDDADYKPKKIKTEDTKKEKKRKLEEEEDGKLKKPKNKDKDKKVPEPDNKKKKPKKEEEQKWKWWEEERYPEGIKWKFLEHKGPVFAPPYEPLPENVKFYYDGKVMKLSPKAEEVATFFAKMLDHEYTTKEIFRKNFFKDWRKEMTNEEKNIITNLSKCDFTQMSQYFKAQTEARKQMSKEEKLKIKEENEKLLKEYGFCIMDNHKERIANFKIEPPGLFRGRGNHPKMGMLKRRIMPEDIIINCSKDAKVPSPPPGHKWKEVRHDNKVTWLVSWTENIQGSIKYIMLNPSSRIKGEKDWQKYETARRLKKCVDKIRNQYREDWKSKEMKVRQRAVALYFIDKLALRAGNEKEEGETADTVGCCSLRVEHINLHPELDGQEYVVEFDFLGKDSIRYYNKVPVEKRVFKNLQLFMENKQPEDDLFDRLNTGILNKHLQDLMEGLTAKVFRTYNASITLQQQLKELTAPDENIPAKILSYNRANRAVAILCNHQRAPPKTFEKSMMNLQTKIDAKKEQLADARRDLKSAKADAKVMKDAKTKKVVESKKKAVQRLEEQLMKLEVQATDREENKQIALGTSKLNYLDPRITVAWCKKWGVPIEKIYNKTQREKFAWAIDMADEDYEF

[5] = system: γH2AX foci in MCF-7 cells; assay: γH2AX immunofluorescence assay; assay type: cell-based, human; settings: 5 h
MCF-7 cells [6] = assay: Flow cytometry apoptosis assay; assay type: cell-based, human; settings: 4 µM, 24 h
[7] = target: cellular TDP1ccs in MCF-7 cells (Homo sapiens, UniProt Q9NUW8); settings: 1 h
cellular TDP1ccs in MCF-7 cells, sequence (Q9NUW8 whole entry): as the sequence (Q9NUW8 whole entry) above

[8] = TOP1 cleavage inhibitory activity, Table 2

With `COc1cc2c(=O)n(C)c3c4cc5c(cc4cc(OCCCN(C)C)c3c2cc1OC)OCO5` [Compound 35, 5-(3-(Dimethylamino)propoxy)-2,3-dimethoxy-12-methyl-[1,3]dioxolo[4’,5’:4,5]benzo[1,2-c]phenanthridin-13(12H)-one] the “TOP1 Inhibition” value (recombinant TOP1; [8]) was 0, the TOP1 Inhibition (recombinant TOP1) was “no TOP1 inhibition” and the IC50 (recombinant human TDP1) was 18 ± 6.9 µM. The GI50 (HCT-116 cells) was 0.55 ± 0.17 µM, the GI50 (MCF-7 cells [1]) was 1.2 ± 0.1 µM and the “combination index (CI) with TPT” value (MCF-7 cells [2]) was 0.02–0.69. For the same compound, the “combination index (CI) with TPT” value [3] was 0.003–0.51.

For `COc1cc2c(=O)n(C)c3c4cc5c(cc4cc(OCCN4CCCC4)c3c2cc1OC)OCO5` [Compound 38, 2,3-Dimethoxy-12-methyl-5-(2-(pyrrolidin-1-yl)ethoxy)-[1,3]dioxolo[4’,5’:4,5]benzo[1,2-c]phenanthridin-13(12H)-one], the “TOP1 Inhibition” value (recombinant TOP1; [8]) was “+++ (+++, between 75% and 95% activity)”, the IC50 (recombinant human TDP1) was 37 to 111 µM and the GI50 (HCT-116 cells) was 0.25 ± 0.02 µM. The GI50 (MCF-7 cells [1]) was 6.4 ± 1 µM and the “cellular TOP1cc trapping” value [4] was “trapped cellular TOP1ccs in MCF-7 cells in a dose-dependent manner”.

`COc1cc2c(=O)n(C)c3c4cc5c(cc4cc(OCCCN4CCOCC4)c3c2cc1OC)OCO5` [Compound 41, 2,3-Dimethoxy-12-methyl-5-(3-morpholinopropoxy)-[1,3]dioxolo[4’,5’:4,5]benzo[1,2-c]phenanthridin-13(12H)-one] was tested, and the “TOP1 Inhibition” value (recombinant TOP1; [8]) was “+ (+, between 20% and 50% activity)”, the IC50 (recombinant human TDP1) was over 111 µM and the GI50 (HCT-116 cells) was 3.3 ± 0.73 µM. For the same compound, the GI50 (MCF-7 cells [1]) was 7.9 ± 1 µM.

With `COc1cc2c(=O)n(C)c3c4cc5c(cc4cc(OCCCO)c3c2cc1OC)OCO5` [Compound 42, 5-(3-Hydroxypropoxy)-2,3-dimethoxy-12-methyl-[1,3]dioxolo[4’,5’:4,5]benzo[1,2-c]phenanthridin-13(12H)-one] the “TOP1 Inhibition” value (recombinant TOP1; [8]) was “+ (+, between 20% and 50% activity)”, the IC50 (recombinant human TDP1) was over 111 µM and the GI50 (HCT-116 cells) was 38 ± 2.31 µM. It also gave a GI50 (MCF-7 cells [1]) of 51 ± 1.6 µM.

For `COc1cc2c(=O)n(C)c3c4cc5c(cc4cc(OCCCNCCO)c3c2cc1OC)OCO5` [Compound 43, 5-(3-((2-Hydroxyethyl)amino)propoxy)-2,3-dimethoxy-12-methyl-[1,3]dioxolo[4’,5’:4,5]benzo [1,2-c]phenanthridin-13(12H)-one], the “TOP1 Inhibition” value (recombinant TOP1; [8]) was “+ (+, between 20% and 50% activity)”, the IC50 (recombinant human TDP1) was 10 ± 3.8 µM and the GI50 (HCT-116 cells) was 0.29 ± 0.19 µM. For the same compound, the GI50 (MCF-7 cells [1]) was 2.2 ± 1.2 µM, the “combination index (CI) with TPT” value (MCF-7 cells [2]) was 0.18–0.77 and the “combination index (CI) with TPT” value [3] was 0.003–0.51. The “γH2AX foci, fold compared with TPT treated alone” value ([5]; co-treatment with TPT and 43 at 1 μM) was “about 1.9 fold”, the “γH2AX foci, fold compared with TPT treated alone” value ([5]; co-treatment with TPT and 43 at 2 μM) was about 2.4 fold and the “DNA damage (γH2AX foci) relative to that of TPT” value ([5]; compound alone at 1 μM) was “about one fifth”. For the same compound, the “late apoptosis, % cells” value (MCF-7 cells [6]) was about 28.58%, the “quantity of cellular TDP1cc” value ([7]; co-treated with TPT (10 μM) and 43 (10 and 100 μM)) was “significantly enhanced” and the “cellular TDP1ccs” value ([7]; compound alone at 100 μM) was “significantly enhanced”.

For `COc1cc2c(=O)n(C)c3c4cc5c(cc4cc(OCCCn4ccnc4)c3c2cc1OC)OCO5` [Compound 44, 5-(3-(1H-imidazol-1-yl)propoxy)-2,3-dimethoxy-12-methyl-[1,3]dioxolo[4’,5’:4,5]benzo[1,2-c]phenanthridin-13(12H)-one], the “TOP1 Inhibition” value (recombinant TOP1; [8]) was 0/+ (0/+, less than 20%), the IC50 (recombinant human TDP1) was over 111 µM and the GI50 (HCT-116 cells) was 10 ± 1.2 µM. For the same compound, the GI50 (MCF-7 cells [1]) was 7 ± 0.55 µM.

`COc1cc2c(=O)n(C)c3c4cc5c(cc4cc(OCCCN4CCN(c6cccc(C(F)(F)F)c6)CC4)c3c2cc1OC)OCO5` [Compound 45, 2,3-Dimethoxy-12-methyl-5-(3-(4-(3-(trifluoromethyl)phenyl)piperazin-1-yl)propoxy)-[1,3]dioxolo[4’,5’:4,5]benzo[1,2-c]phenanthridin-13(12H)-one] was tested, and the “TOP1 Inhibition” value (recombinant TOP1; [8]) was 0, the IC50 (recombinant human TDP1) was over 111 µM and the GI50 (HCT-116 cells) was over 100 µM. It also gave a GI50 (MCF-7 cells [1]) of 85 ± 3.8 µM.

In the case of `CC[C@@]1(O)C(=O)OCc2c1cc1n(c2=O)Cc2cc3c(CN(C)C)c(O)ccc3nc2-1` [TPT, Topotecan, reference compound], the γH2AX foci formation ([5]; alone) is reported as “could obviously induce γH2AX foci formation” and the “cellular TOP1cc trapping” value [4] is reported as “trapped cellular TOP1ccs”.
